Measured values reported in patent US20040132811A1, “Methods and products for inhibiting growth of fungal pathogens on turfgrass” (priority 2003, published 2004).
Entries after “also recorded” stand apart in the source; their conditions may differ.

System: anthracnose on bentgrass
Experiment: Evaluation of fungicides for control of anthracnose on bentgrass putting greens (field test)
Format: in vivo, Colletotrichum graminicola
Text: The test was established on the 16th green at the Fianna Hills Country Club in Fort Smith, Ark. The green is more than 20 years old and was maintained at 0.156-inch mowing height and with other standard practices used at Fianna Hills. The design was a randomized complete block with 20 treatments and four replications. Individual plots were 4 feet×5 feet and isolated with a spray shield during applications. Treatments were applied on approximate 14- or 28-day schedules. Actual dates of applications were 31 May, 13 Jun., 27 Jun., 12 Jul., 26 Jul., and 9 Aug., all in 2002. Treatments were applied at 4 gal/1000 sq ft using a hand-held CO2-powered sprayer at 20 psi with a TeeJet 8004VS spray tip. The amount of active ingredient per 1000 square feet for each fungicide is provided in Table I. The C3 biocontrol is a strain of Lysobacter enzymogenes that was supplied by Dr. Gary Yuen from the University of Nebraska. The MX 567 active ingredient was first dissolved in acetone and then diluted with water. Treatments were evaluated by recording disease incidence, disease intensity, and turf quality.

[1] = 2 Aug, 2.5 g ai + .05% Tween per 1000 sq ft, days 0, 13, 27, 42, 56, 70
[2] = 19 Aug, 2.5 g ai + .05% Tween per 1000 sq ft, days 0, 13, 27, 42, 56, 70

C[C@H](COc1cc(F)ccc1F)NC(=O)C(C#N)C(C)(C)C (stereo in doubt) [MX 567, rel-2-cyano-N-[(1R)-2-(2,5-difluorophenoxy)-1-methylethyl]-3,3-dimethylbutanamide]
Incidence (%) of plot area with anthracnose symptoms [1]: 23% | Intensity (0 = no disease to 4 = dead) [1]: 1.0 | Severity (incidence × intensity) [1]: 23 | Incidence (%) of plot area with anthracnose symptoms (16 Jul, 2.5 g ai + .05% Tween per 1000 sq ft, days 0, 13, 27, 42, 56, 70): 21% | Incidence (%) of plot area with anthracnose symptoms [2]: 29% | Intensity (0 = no disease to 4 = dead) [2]: 1.0 | Severity (incidence × intensity) [2]: 29 | Turf quality (0-9 rating scale: 0 = all dead, 9 = excellent) [2]: 6.3 | Incidence (%) of plot area with anthracnose symptoms (26 Jul, 2.5 g ai + .05% Tween per 1000 sq ft, days 0, 13, 27, 42, 56, 70): 2% | turf quality, in words (summary of Table I): increases in turf quality; also recorded: highest turf quality | disease severity, in words (summary of Table I versus nontreated checks): significant reductions in disease severity
